SMILES strings stand for the structures.

Holding throughout (assay type): cell-based, human
The test system of experiment [1] is foreskin cells in which senescence was induced by doxorubicin. In words: CellTiter-Glo cell viability of doxorubicin-induced senescent foreskin cells (Examples 1-2, 10, 11, 13; Tables 4, 63, 65). The note with it: Homo sapiens, 72 h, doxorubicin-induced senescent foreskin cells, CellTiter-Glo, 0 μM = 100, read-out: Survival (%); for viability at 10 µM: 10 μM test compound; for viability at […]: […] test compound; for viability at 1.1 µM: 1.1 μM test compound; for viability at 30 µM: 30 μM test compound; for viability at 90 µM: 90 μM test compound; for viability at 270 µM: 270 μM test compound.
Experimental: After 3 days, cell viability was measured using CellTiter-Glo Luminescent Cell Viability Assay (Promega) or light microscopy.

Experiment [2] deals with HMGN1. In words: HMGN1 ELISA in culture medium of foreskin cells (Examples 10, 11; Tables 62, 63, 64). To be noted: Homo sapiens, doxorubicin-treated foreskin cells, DMSO = 100; for activity at 30 µM: 30 μM test compound, read-out: HMGN1; for activity at 270 µM: 270 μM test compound.
Experiment [3] concerns HMGN1. The experiment can be described thus: HMGN1 ELISA in culture medium of A549 cancer cells (Example 12, Table 66). The note with it: Homo sapiens, A549, doxorubicin-induced senescent A549 cells, ELISA, DMSO = 100, read-out: HMGN1 (amount of HMGN1 secreted in the cell culture); for activity at 30 µM: test compound 30 μM; for activity at 270 µM: test compound 270 μM.
The test system of the next experiment is A549. In words: CellTiter-Glo cell viability of senescent A549 cancer cells (Example 12, Table 67). The note with it: Homo sapiens, A549, doxorubicin-induced senescent A549 cancer cells, CellTiter-Glo, read-out: Survival (%); for viability at 1.1 µM: 1.1 μM test compound; for viability at 10 µM: 10 μM test compound; for viability at 30 µM: 30 μM test compound; for viability at 90 µM: 90 μM test compound; for viability at 270 µM: 270 μM test compound.

Consider `COC1=C(OC)C(=O)C(CCCCCCCCCC[P+](c2ccccc2)(c2ccccc2)c2ccccc2)=C(C)C1=O` [LX-1203, Mitoquinone], for which the viability at 10 µM is 1.5% in experiment [1] and 15.5% with A549. In experiment [1], the viability at […] turned out to be 38.2%. Also, the values for the activity at 30 µM with HMGN1 [2] and in the experiment on HMGN1 [3] were 311% and 298%, respectively. Besides, the viability at 1.1 µM in the experiment on A549 was 88.7%.
Consider `C[C@H]1[C@H](C)CC[C@]2(C(=O)O)CC[C@]3(C)C(=CC[C@@H]4[C@@]5(C)CC[C@H](O)C(C)(C)[C@@H]5CC[C@]43C)[C@H]12` [LX-2001, Ursolic acid], for which, in experiment [1], the viability at 1.1 µM is 75.2% and the viability at […] was 0.8%. Moreover, in the experiment with HMGN1 [2], the activity at 30 µM was 328%. Besides, in the experiment on HMGN1 [3], the activity at 30 µM came out at 328%. In the experiment with A549, the viability at 1.1 µM stood at 98.3% and the viability at 10 µM came to 5.1%.
As for `Clc1ccc(C(c2ccccc2Cl)C(Cl)Cl)cc1` (centres unmarked) [LX-1301, Mitotane, reference compound], in experiment [1], the viability at 1.1 µM came out at 104%, the viability at 10 µM came out at 83%, the viability at 30 µM was 0.4% and the viability at […] worked out at 106%. Further, the activity at 30 µM with HMGN1 [2] was determined as 281%. The activity at 30 µM with HMGN1 [3] amounted to 318%. In the experiment with A549, the viability at 1.1 µM is 106%, the viability at 10 µM is 101% and the viability at 30 µM worked out at 17.5%.
With `COC(=O)c1ccc([C@H]2c3ccc(OC)cc3C[C@H](C(=O)OC)N2C(=O)CCl)cc1` [LX-416], the viability at 1.1 µM in experiment [1] came out at 70.3%; in the experiment on A549, 91.4%. Moreover, in experiment [1], the viability at […] stood at 29.1%. Moreover, the figures for the activity at 30 µM in the experiment on HMGN1 [2] and with HMGN1 [3] were 293% and 315%, respectively.
For the compound `C[C@H]1[C@H](C)CC[C@]2(C(=O)O)CC[C@]3(C)C(=CC[C@@H]4[C@@]5(C)C[C@@H](O)[C@H](O)C(C)(C)[C@@H]5CC[C@]43C)[C@H]12` [LX-2002, Corosolic acid], in experiment [1], the viability at 1.1 µM worked out at 101% and the viability at […] worked out at 12.4%. Besides, in the experiment on HMGN1 [2], the activity at 30 µM was determined as 305%. Further, in the experiment on HMGN1 [3], the activity at 30 µM was 314%. In the experiment on A549, the viability at 1.1 µM amounted to 99.6% and the viability at 10 µM turned out to be 10.4%.
For the compound `CC1(C)CC[C@]2(C(=O)NCC(F)(F)F)CC[C@]3(C)[C@H](C(=O)C[C@@H]4[C@@]5(C)C=C(C#N)C(=O)C(C)(C)[C@@H]5CC[C@]43C)[C@@H]2C1` [LX-2302, Dihydro-CDDO-Trifluoroethyl Amide], in experiment [1], the viability at 1.1 µM worked out at 48.9% and the viability at […] is 6.3%. Moreover, in the experiment on HMGN1 [2], the activity at 30 µM turned out to be 279%. The activity at 30 µM in the experiment on HMGN1 [3] was 313%. Besides, in the experiment on A549, the viability at 1.1 µM stood at 95.9% and the viability at 10 µM worked out at 5.4%.
In the case of `C[C@H]1[C@H](SCc2ccccc2)O[C@@H]2O[C@@]3(C)CC[C@H]4[C@H](C)CC[C@@H]1[C@@]24OO3` [LX-505], the values for the viability at 1.1 µM (in experiment [1]; with A549) were 35.2% and 51.1%, respectively. For the same compound, in experiment [1], the viability at […] was determined as 0.4%. The activity at 30 µM is 299% with HMGN1 [2] and 317% in the experiment on HMGN1 [3].
Consider `Cc1ccc(C(=O)C(C)CN2CCCCC2)cc1` (centres unmarked) [LX-1403, Tolperisone, reference compound], for which, in experiment [1], the viability at 1.1 µM was found to be 102%, the viability at 10 µM worked out at 55.4%, the viability at 30 µM was determined as 18.3% and the viability at […] was determined as 97.6%. Further, the activity at 30 µM in the experiment with HMGN1 [2] amounted to 282%. Moreover, the activity at 30 µM in the experiment with HMGN1 [3] stood at 306%. Also, in the experiment on A549, the viability at 1.1 µM turned out to be 97.6%, the viability at 10 µM amounted to 70% and the viability at 30 µM turned out to be 8.4%.
For `CCc1nc(C(N)=O)c(Nc2ccc(N3CCC(N4CCN(C)CC4)CC3)c(OC)c2)nc1NC1CCOCC1` [LX-3303, Gilteritinib, reference compound], in experiment [1], the viability at 1.1 µM turned out to be 83.9%, the viability at 10 µM amounted to 13.9% and the viability at […] was determined as 69.4%. Further, the activity at 30 µM in the experiment on HMGN1 [2] stood at 275%. For the same compound, the activity at 30 µM with HMGN1 [3] amounted to 239%. In the experiment with A549, the viability at 1.1 µM came to 101%, the viability at 10 µM is 53.8% and the viability at 30 µM worked out at 11.7%.
For the compound `CC1(C)CC[C@]2(NS(C)(=O)=O)CC[C@]3(C)[C@H](C(=O)C=C4[C@@]5(C)C=C(C#N)C(=O)C(C)(C)[C@@H]5CC[C@]43C)[C@@H]2C1` [LX-2306], in experiment [1], the viability at 1.1 µM was determined as 29.8% and the viability at […] came out at 7.1%. Also, the activity at 30 µM with HMGN1 [2] came to 301%. In addition, the activity at 30 µM in the experiment on HMGN1 [3] came to 296%. Also, in the experiment with A549, the viability at 1.1 µM came out at 102% and the viability at 10 µM came to 11.5%.
`COC(=O)[C@@]1(C)CC[C@]2(C)CC[C@]3(C)[C@H](C(=O)C=C4[C@@]5(C)C=C(C#N)C(=O)C(C)(C)C5CC[C@]43C)[C@@H]2C1` (some centres unmarked) [LX-2513, Soloxolone methyl]: the viability at 1.1 µM in experiment [1] was 49.6%; in the experiment with A549, 105%. Further, the viability at […] in experiment [1] is 2.6%. The activity at 30 µM in the experiment with HMGN1 [2] was 325%; in the experiment with HMGN1 [3], 311%. For the same compound, the viability at 10 µM in the experiment on A549 worked out at 6.9%.
In the case of `COC(=O)[C@]12CCC(C)(C)C[C@H]1[C@H]1C(=O)C=C3[C@@]4(C)C=C(C#N)C(=O)[C@@H](C)[C@@H]4CC[C@@]3(C)[C@]1(C)CC2` [LX-2316], in experiment [1], the viability at 1.1 µM is 36.6% and the viability at […] is 0.9%. For the same compound, in the experiment with HMGN1 [2], the activity at 30 µM is 274%. In addition, the activity at 30 µM with HMGN1 [3] is 263%. In addition, in the experiment on A549, the viability at 1.1 µM came out at 106% and the viability at 10 µM came to 25.4%.
For `Cc1cc(-c2ccc(-n3nc(-c4ccccc4F)c4c3[C@]3(C)C=C(C#N)C(=O)[C@H](C)[C@H]3CC4)cc2)cnn1` [LX-2506], in experiment [1], the viability at 1.1 µM came to 91% and the viability at […] amounted to 11.8%. The activity at 30 µM in the experiment with HMGN1 [2] was 279%. For the same compound, the activity at 30 µM with HMGN1 [3] was found to be 267%. In the experiment with A549, the viability at 1.1 µM was 98.3% and the viability at 10 µM worked out at 26.4%.
In the case of `O=C(O)CCCCC(CCSCc1ccccc1)SCc1ccccc1` (centres unmarked) [LX-3109, Devimistat, reference compound], in experiment [1], the viability at 1.1 µM is 97.2%, the viability at 10 µM was determined as 88.7%, the viability at 30 µM amounted to 74% and the viability at 90 µM stood at 48.7%. In experiment [1], the viability at 270 µM stood at 19.7% and the viability at […] was found to be 96%. Besides, in the experiment on HMGN1 [2], the activity at 270 µM came out at 232%. Further, the activity at 270 µM in the experiment on HMGN1 [3] is 247%. In the experiment on A549, the viability at 1.1 µM was 108%, the viability at 10 µM turned out to be 85.7%, the viability at 30 µM was 68.2% and the viability at 90 µM stood at 43.4%. Further, in the experiment on A549, the viability at 270 µM amounted to 0.1%.
For the compound `C=CC(=O)Nc1cccc(Oc2nc(Nc3ccc(N4CCN(C)CC4)cc3)nc3ccoc23)c1` [LX-2902, Poseltinib, reference compound], in experiment [1], the viability at 1.1 µM was found to be 1.9%. In the experiment on HMGN1 [2], the activity at 30 µM was determined as 297%. The activity at 30 µM in the experiment with HMGN1 [3] stood at 271%. Also, in the experiment with A549, the viability at 1.1 µM is 95.7%, the viability at 10 µM was 72.4% and the viability at 30 µM was found to be 31.2%.
On to `CCCCS(=N)(=O)CCC(N)C(=O)O` (centres unmarked) [LX-2805, Buthionine sulfoximine], for which, in experiment [1], the viability at 1.1 µM was 99.4%, the viability at 10 µM turned out to be 92%, the viability at 30 µM was found to be 84.2% and the viability at 90 µM turned out to be 82%. In experiment [1], the viability at 270 µM was 51.1% and the viability at […] turned out to be 97.3%. In addition, the activity at 270 µM with HMGN1 [2] amounted to 182%. The activity at 270 µM in the experiment on HMGN1 [3] was 158%. In the experiment on A549, the viability at 1.1 µM is 105%, the viability at 10 µM amounted to 96.7%, the viability at 30 µM is 82.9% and the viability at 90 µM amounted to 73.3%. Also, the viability at 270 µM in the experiment with A549 is 49.3%.
Turning to `C[C@]12C=C(C#N)C(=O)C3(CC=CC3)C1=CC[C@@H]1[C@@H]2CC[C@]2(C)C(=O)CC[C@@H]12` [LX-2308], in experiment [1], the viability at 1.1 µM amounted to 49.6% and the viability at […] stood at 5.9%. For the same compound, the activity at 30 µM with HMGN1 [2] amounted to 329%. The activity at 30 µM in the experiment with HMGN1 [3] stood at 287%. Also, in the experiment with A549, the viability at 1.1 µM is 96.6% and the viability at 10 µM was 23.5%.

Values taken from US20250108036A1, “COMPOSITIONS FOR REMOVING SENESCENT CELLS AND USES THEREOF” (LIFECEUTIX CO., LTD., priority 2021, published 2025).
